Assay results published in ChEMBL document CHEMBL1201862, “PubChem BioAssay data set” (2004).
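Results reflect a 48-hour exposure of cells in 96-well plates to compound at five concentrations. GI50 marks 50% less growth.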 Activity calls are given as the source filed them. Cut-off read from the data, not from the text of the source: active = GI50 up to about 1.1 µM and inactive = higher. Where a SMILES comes first, the peptide text is derived from it. [ ]: non-standard residue; d: D form. The star is where a group is joined. Cbz = O=C(OCc1ccccc1)*; Aib = CC(C)(N)C(=O)O

Legend:
Test in all cases: NCI anticancer screen, dose series, 48 h
A498 = tested on: A498
A549 = tested on: A549
CAKI-1 = tested on: CAKI-1
HCT-15 = tested on: HCT-15
HL-60 = tested on: HL-60
HOP-92 = tested on: HOP-92
IGROV-1 = tested on: IGROV-1
KM12 = tested on: KM12
MDA-MB-231 = tested on: MDA-MB-231
MDA-MB-435 = tested on: MDA-MB-435
MOLT-4 = tested on: MOLT-4
NCI/ADR-RES = tested on: NCI/ADR-RES
OVCAR-3 = tested on: OVCAR-3
SF-268 = tested on: SF-268
SF-539 = tested on: SF-539
SN12C = tested on: SN12C
SW-620 = tested on: SW-620
U-251 = tested on: U-251
UACC-62 = tested on: UACC-62
SK-MEL-28 = tested on: SK-MEL-28

SMILES | GI50 (A498) | GI50 (A549) | GI50 (CAKI-1) | GI50 (HCT-15) [µM] | GI50 (HL-60) | GI50 (HOP-92) | GI50 (IGROV-1) | GI50 (KM12) | GI50 (MDA-MB-231) | GI50 (MDA-MB-435) | GI50 (MOLT-4) | GI50 (NCI/ADR-RES) | GI50 (OVCAR-3) | GI50 (SF-268) | GI50 (SF-539) | GI50 (SN12C) | GI50 (SW-620) | GI50 (U-251) | GI50 (UACC-62) | GI50 (SK-MEL-28)
CCCCCCCCCCCCCCCCOC[C@@H](COC(c1ccccc1)(c1ccccc1)c1ccccc1)O[PH](=S)OC (some centres not stated) | 11.5 µM (inactive) | 5.61 µM (inactive) | 11.6 µM (inactive) | 10.6 | 14.8 µM (inactive) | 12.4 µM (inactive) | 13.7 µM (inactive) | 4.3 µM (inactive) | 2.28 µM (inactive) | 2.24 µM (inactive) | 20.4 µM (inactive) | 22.6 µM (inactive) | 13.2 µM (inactive) | 9.25 µM (inactive) | 2.82 µM (inactive) | 5.32 µM (inactive) | 16.1 µM (inactive) | 4.04 µM (inactive) | 3.81 µM (inactive) | 
CN(C)/C=N/Cc1ccc2c(c1)OCO2 | > 100 µM (inactive) | > 100 µM (inactive) | > 100 µM (inactive) | > 100 |  | > 100 µM (inactive) | > 100 µM (inactive) | > 100 µM (inactive) | > 100 µM (inactive) | > 100 µM (inactive) | > 100 µM (inactive) | > 100 µM (inactive) | > 100 µM (inactive) | > 100 µM (inactive) | > 100 µM (inactive) | > 100 µM (inactive) | > 100 µM (inactive) | > 100 µM (inactive) | > 100 µM (inactive) | > 100 µM (inactive)
Cc1cc(-c2ccccc2)nc2oc(=O)n(C)c12 | > 100 µM (inactive) | > 100 µM (inactive) | 49.1 µM (inactive) | > 100 | > 100 µM (inactive) | 86.5 µM (inactive) | 53.3 µM (inactive) | > 100 µM (inactive) | 64.9 µM (inactive) | > 100 µM (inactive) | > 100 µM (inactive) | > 100 µM (inactive) | > 100 µM (inactive) | > 100 µM (inactive) |  | 71.8 µM (inactive) | > 100 µM (inactive) | 51.1 µM (inactive) | > 100 µM (inactive) | > 100 µM (inactive)
CC(C)CCNC(=O)c1ccc(CNC(=O)/C=C/c2ccc3c(c2)-c2ccccc2C3)cc1 | > 100 µM (inactive) | 41.5 µM (inactive) | 26.5 µM (inactive) | 41.5 |  | 41.2 µM (inactive) | 58.7 µM (inactive) | 33.3 µM (inactive) | 34.5 µM (inactive) | 52.5 µM (inactive) | 36.2 µM (inactive) | 34.2 µM (inactive) | 23.4 µM (inactive) | 38.7 µM (inactive) | > 100 µM (inactive) | > 100 µM (inactive) | 44.8 µM (inactive) | 24.7 µM (inactive) | > 100 µM (inactive) | 34 µM (inactive)
O=c1[nH]c(=O)c2c([nH]1)[nH]c1ccccc12 | > 100 µM (inactive) | > 100 µM (inactive) | > 100 µM (inactive) | > 100 | > 10 µM (inactive) | > 100 µM (inactive) | > 100 µM (inactive) | 37.8 µM (inactive) | > 100 µM (inactive) | > 100 µM (inactive) | > 100 µM (inactive) | > 100 µM (inactive) | 65.2 µM (inactive) | > 100 µM (inactive) | > 100 µM (inactive) | > 100 µM (inactive) | > 100 µM (inactive) |  | > 100 µM (inactive) | 
CCOC(=O)CC1(N)CC2c3ccccc3OC(=O)C2C(=O)N1 (configuration not stated) | > 100 µM (inactive) | > 100 µM (inactive) | > 100 µM (inactive) | > 100 | > 100 µM (inactive) | > 100 µM (inactive) | > 100 µM (inactive) | > 100 µM (inactive) | > 100 µM (inactive) | > 100 µM (inactive) | > 100 µM (inactive) | > 100 µM (inactive) | > 100 µM (inactive) | > 100 µM (inactive) |  | > 100 µM (inactive) | > 100 µM (inactive) | > 100 µM (inactive) | > 100 µM (inactive) | > 100 µM (inactive)
S=C1SC(c2ccc(Cl)cc2)(c2ccc(Cl)cc2)c2ccccc21 | 81.8 µM (inactive) | 77.6 µM (inactive) | 53.8 µM (inactive) | 65 |  | 44.4 µM (inactive) | > 100 µM (inactive) | 40.3 µM (inactive) | > 100 µM (inactive) | 62.7 µM (inactive) | 37.2 µM (inactive) | > 100 µM (inactive) | 72.1 µM (inactive) | 95.1 µM (inactive) | > 100 µM (inactive) | > 100 µM (inactive) | 68.7 µM (inactive) | > 100 µM (inactive) | > 100 µM (inactive) | 67.8 µM (inactive)
O=C(NNC(=S)NC1CCCCC1)c1csc(NC(=S)NC2CCCCC2)n1 | 21.5 µM (inactive) | 7.89 µM (inactive) | 7.23 µM (inactive) | 0.463 | > 100 µM (inactive) |  | 3.52 µM (inactive) | 10.6 µM (inactive) | 17.8 µM (inactive) | 10.8 µM (inactive) | 3.42 µM (inactive) | 2.74 µM (inactive) | 4.04 µM (inactive) | 6.21 µM (inactive) | 4.58 µM (inactive) | 5.6 µM (inactive) | 5.13 µM (inactive) | 5.73 µM (inactive) | 4.45 µM (inactive) | 
CCC(C)C(Nc1c2ccccc2nc2c(C(=O)NCCN(C)C)cccc12)C(=O)O (configuration not stated) | 16.9 µM (inactive) | 12.3 µM (inactive) |  | 7.45 |  | 11.8 µM (inactive) | 14.7 µM (inactive) | 14.8 µM (inactive) | 17.6 µM (inactive) | 18.1 µM (inactive) | 7.59 µM (inactive) | 10.4 µM (inactive) | 23.6 µM (inactive) | 13.6 µM (inactive) |  | 13.6 µM (inactive) | 9.16 µM (inactive) | 25.2 µM (inactive) | 15.9 µM (inactive) | 23.6 µM (inactive)
COc1cccc(-n2c(N)c(-c3nc4cc(C(F)(F)F)ccc4s3)c3ccc([N+](=O)[O-])cc3c2=O)c1 | > 100 µM (inactive) | > 100 µM (inactive) | > 100 µM (inactive) | > 100 |  | > 100 µM (inactive) |  | > 100 µM (inactive) | > 100 µM (inactive) | > 100 µM (inactive) | > 100 µM (inactive) | > 100 µM (inactive) | > 100 µM (inactive) | > 100 µM (inactive) |  | > 100 µM (inactive) |  | > 100 µM (inactive) | > 100 µM (inactive) | > 100 µM (inactive)
NS(=O)(=O)c1ccc(NC(=S)N/C=C2\C(=O)Oc3ccccc3C2=O)cc1 | 20.5 µM (inactive) | 43 µM (inactive) | 19.3 µM (inactive) | 39.2 | 21.4 µM (inactive) | 15.3 µM (inactive) | 18.9 µM (inactive) | 16.5 µM (inactive) | 16 µM (inactive) | 43.5 µM (inactive) | 53 µM (inactive) | 31.4 µM (inactive) | 27.2 µM (inactive) | 38.5 µM (inactive) | 44 µM (inactive) | 22.5 µM (inactive) | 40.1 µM (inactive) | 36.2 µM (inactive) | 34.8 µM (inactive) | 
CC(=O)CC1(OC(=O)C2C(C=C(C)C)C2(C)C)C(=O)Nc2ccccc21 (configuration not stated) | > 100 µM (inactive) | > 100 µM (inactive) | > 100 µM (inactive) | > 100 | > 100 µM (inactive) |  | > 100 µM (inactive) | > 100 µM (inactive) | > 100 µM (inactive) | > 100 µM (inactive) | > 100 µM (inactive) | 68.5 µM (inactive) | 54.2 µM (inactive) | > 100 µM (inactive) | > 100 µM (inactive) | > 100 µM (inactive) | > 100 µM (inactive) | > 100 µM (inactive) | > 100 µM (inactive) | > 100 µM (inactive)
O=C(/C=C/c1cccc(Br)c1)c1cccs1 | 16.5 µM (inactive) | 17.4 µM (inactive) | 16.1 µM (inactive) | 14.6 | 3.83 µM (inactive) |  | 17.1 µM (inactive) | 13.7 µM (inactive) | 16.7 µM (inactive) | 11.7 µM (inactive) | 15.3 µM (inactive) | 23.6 µM (inactive) |  | 19.6 µM (inactive) | 18 µM (inactive) | 14.7 µM (inactive) | 9.35 µM (inactive) | 13.9 µM (inactive) | 16.2 µM (inactive) | 18.1 µM (inactive)
C[N+](C)(CCNc1ccc(NCC[N+](C)(C)Cc2ccc([N+](=O)[O-])cc2)c2c1C(=O)c1c(O)ccc(O)c1C2=O)Cc1ccc([N+](=O)[O-])cc1 | > 50 µM (inactive) | 28.2 µM (inactive) | > 50 µM (inactive) | 35.8 | > 50 µM (inactive) |  | > 50 µM (inactive) | 1.36 µM (inactive) | 2.65 µM (inactive) | > 50 µM (inactive) | > 5 µM (inactive) | > 50 µM (inactive) | > 50 µM (inactive) | > 50 µM (inactive) | 19.1 µM (inactive) | > 50 µM (inactive) | > 50 µM (inactive) | > 50 µM (inactive) | > 50 µM (inactive) | > 50 µM (inactive)
CC(C)(NC(=O)C(C)(C)NC(=O)OCc1ccccc1)C(=O)O (Cbz-[Aib]-[Aib]-OH) | > 100 µM (inactive) | > 100 µM (inactive) | > 100 µM (inactive) | > 100 |  | > 100 µM (inactive) | > 100 µM (inactive) | > 100 µM (inactive) | > 100 µM (inactive) | > 100 µM (inactive) | > 100 µM (inactive) | > 100 µM (inactive) | > 100 µM (inactive) | > 100 µM (inactive) | > 100 µM (inactive) | > 100 µM (inactive) | > 100 µM (inactive) | > 100 µM (inactive) | > 100 µM (inactive) | > 100 µM (inactive)
